Where a name gives a salt, the structure may show the parent alone. Bounds are passed on as bounds.

As to `Nc1cccc(-c2ccc(CN3CCCCC3)cc2)n1` (as salt: hydrochloride) [Example 138, 6-(4-Piperidin-1-ylmethyl-phenyl)-pyridin-2-ylamine], the melting point was greater than 250 °C.

Consider `Nc1cccc(-c2ccc(CCN3CCN(C(=O)c4ccco4)CC3)cc2)n1` [Example 7, (4-{2-[4-(6-Amino-pyridin-2-yl)-phenyl]-ethyl}-piperazin-1-yl)-furan-2-yl-methanone], for which the melting point lay within 152 to 154 °C.

Regarding `CC(C)CN1CCN(CCc2ccc(-c3cccc(N)n3)cc2)CC1` [Example 17, 6-{4-[2-(4-Isobutyl-piperazin-1-yl)-ethyl]-phenyl}-pyridin-2-ylamine], the melting point lay in the range of 85 to 88 °C.

As for `CC(Cc1ccccc1)N1CCN(CCc2ccc(-c3cccc(N)n3)cc2)CC1` (centres unmarked) (as salt: hydrochloride) [Example 54, 6-(4-{2-[4-(1-Methyl-2-phenyl-ethyl)-piperazin-1-yl]-ethyl}-phenyl)-pyridin-2-ylamine], the melting point is 252 to 256 °C.

As to `Nc1cccc(-c2ccc(CCN3CCC(NC(=O)NCc4ccccc4)C3)cc2)n1` (centres unmarked) (as salt: hydrochloride) [Example 73, 1-(1-{2-[4-(6-Amino-pyridin-2yl)-phenyl]-ethyl}-pyrrolidin-3-yl)-3-benzyl-urea], the melting point was 90 °C (dec.).

As for `Nc1cccc(-c2ccc(CCN3CCN(C(=O)Cc4ccc(Cl)cc4)CC3)cc2)n1` (as salt: hydrochloride), the melting point is 205 °C (dec.).

Turning to `Nc1cccc(-c2ccc(CCN3CCN(CC(O)c4ccccc4)CC3)cc2)n1` (centres unmarked) (as salt: hydrochloride) [Example 103, 2-(4-{2-[4-(6-Amino-pyridin-2-yl)-phenyl]-ethyl}-piperazin-1-yl)-1-phenyl-ethanol], the melting point was 235 °C (dec.).

With `Nc1cccc(-c2ccc(CCNC3Cc4ccccc4C3)cc2)n1` (as salt: hydrochloride) [Example 117, 6-{4-[2-(Indan-2-ylamino)-ethyl]-phenyl}-pyridin-2-ylamine], the melting point is 60 to 70 °C (dec.).

In the case of `CC(C)NC(=O)CN1CCN(CCc2ccc(-c3cccc(N)n3)cc2)CC1` [Example 23, 2-(4-{2-[4-(6-Amino-pyridin-2-yl)-phenyl]-ethyl}-piperazin-1-yl)-N-isopropyl-acetamide], the melting point was 163 to 165 °C.

With `Nc1cccc(-c2ccc(CCNC3CC4COCC(C3)N4)cc2)n1` (centres unmarked) (as salt: hydrochloride) [107], the melting point is 170 °C (dec.).

`Nc1cccc(-c2ccc(CCNCCCCCc3ccccc3)cc2)n1` [Example 126, 6-{4-[2-(5-Phenyl-pentylamino)-ethyl]-phenyl}-pyridin-2-ylamine]: the melting point is 60 to 70 °C.

Regarding `Nc1cccc(-c2ccc(CCNC34CC5CC(CC(C5)C3)C4)cc2)n1` (as salt: hydrochloride) [Example 115, 6-{4-[2-(Adamantan-1-ylamino)-ethyl]-phenyl}-pyridin-2-ylamine], the melting point was 200 to 220 °C (dec.).

`Nc1cccc(-c2ccc(CCNC3CC4CCC(C3)N4)cc2)n1` (centres unmarked) (as salt: hydrochloride): the melting point was 170 °C (dec.).

Regarding `Nc1cccc(-c2ccc(CCN3C4CCC3CC(NC(=O)c3ccccc3)C4)cc2)n1` (centres unmarked) (as salt: hydrochloride), the melting point was 211 °C (dec.).

As to `NC(=O)CNC1C2CN(CCc3ccc(-c4cccc(N)n4)cc3)CC21` (centres unmarked) [Example 52, 2-(3-{2-[4-(6-Amino-pyridin-2-yl)-phenyl]-ethyl}-3-aza-bicyclo[3.1.0]hex-6-ylamino)-acetamide], the melting point was 140 °C (dec.).

Consider `Nc1cccc(-c2ccc(CCN(CC3CCCCC3)CC3CCCCC3)cc2)n1` (as salt: salt) [Example 124, 6-{4-[2-(Bis-cyclohexylmethyl-amino)-ethyl]-phenyl}-pyridin-2-ylamine], for which the melting point is 75 to 85 °C.

For the molecule `Nc1cccc(-c2ccc(CCN3CCC(N)(C(=O)NCc4ccccc4)CC3)cc2)n1` (as salt: hydrochloride) [Example 59, 4-Amino-1{-2-[4-(6-amino-pyridin-2-yl)-phenyl]-ethyl}-piperidine-4-carboxylic acid benzylamide], the melting point was > 240 °C (dec.).

`Nc1cccc(-c2ccc(CCN3CCN(c4nnnn4-c4ccc(F)cc4)CC3)cc2)n1` [Example 48, 6-[4-(2-{4-[1-(4-Fluoro-phenyl)-1H-tetrazol-5-yl]-piperazin-1-yl}-ethyl)-phenyl]-pyridin-2-ylamine]: the melting point lay in the range of 185 to 187 °C.

Take `CN1CC2CC1CN2CCc1ccc(-c2cccc(N)n2)cc1` (centres unmarked) (as salt: hydrochloride): the melting point was 132 °C (dec.).

As for `Nc1cccc(-c2ccc(CCNC3C4CC5CC(C4)CC3C5)cc2)n1` (centres unmarked) (as salt: hydrochloride) [Example 116, 6-{4-[2-(Adamantan-2-ylamino)-ethyl]-phenyl}-pyridin-2-ylamine], the melting point was 215 to 230 °C (dec.).

Consider `Nc1cccc(-c2ccc(CCN3CCN(C(=O)COc4ccccc4)CC3)cc2)n1`, for which the melting point fell in the range of 127 to 130 °C.

For the molecule `Nc1cccc(-c2ccc(CCN3CCN(C4CCc5ccccc5C4)CC3)cc2)n1` (centres unmarked) (as salt: hydrochloride) [Example 55, 6-(4-{2-[4-(1,2,3,4-Tetrahydro-naphthalen-2-yl)-piperazin-1-yl]-ethyl}-phenyl)-pyridin-2-ylamine], the melting point was greater than 220 °C.

`Nc1cccc(-c2ccc(CCN3CCN(C(=O)NC4CCCCC4)CC3)cc2)n1` [Example 32, 4-{2-[4-(6-Amino-pyridin-2-yl)-phenyl]-ethyl}-piperazine-1-carboxylic acid cyclohexylamide] registered a melting point of 180 to 182 °C.

Regarding `Cc1ccc(NC(=O)N2CCN(CCc3ccc(-c4cccc(N)n4)cc3)CC2)cc1C` [Example 41, 4-{2-[4-(6-Amino-pyridin-2-yl)-phenyl]-ethyl}-piperazine-1carboxylic acid (3,4-dimethyl-phenyl)-amide], the melting point lay within 122 to 125 °C.

Consider `Nc1cccc(-c2ccc(CCN3CCC(c4ccccc4)C3)cc2)n1` (centres unmarked) (as salt: hydrochloride) [Example 26, 6-{4-[2-(3-Phenyl-pyrrolidin-1-yl)-ethyl]-phenyl}-pyridin-2-ylamine], for which the melting point was 100 °C (dec.).

Molecule `Nc1cccc(-c2ccc(CCN3CCN(C(=O)Oc4ccccc4)CC3)cc2)n1` showed a melting point of 102 to 104 °C.

`Nc1cccc(-c2ccc(CCCNC3CCc4ccccc4C3)cc2)n1` (centres unmarked) (as salt: hydrochloride) [Example 127, 6-{4-[3-(1,2,3,4-Tetrahydro-naphthalen-2-ylamino)-propyl]-phenyl}-pyridin-2-ylamine] gave a melting point of 120 to 130 °C.

With `Nc1cccc(-c2ccc(CCN3CCC(N)CC3)cc2)n1` (as salt: trifluoroacetate) [Example 67, 6-{4-[2-(4-Amino-piperidin-1-yl)-ethyl]-phenyl}-pyridin-2-ylamine], the melting point was 190 to 195 °C.

For `Nc1cccc(-c2ccc(CCN3CCN(C(=O)NCc4ccccc4)CC3)cc2)n1` [Example 47, 4-{2-[4-(6-Amino-pyridin-2-yl)-phenyl]-ethyl}-piperazine-1-carboxylic acid benzylamide], the melting point was 172 to 181 °C.

One may read the melting point as the temperature, or range, at which the solid turns liquid.

These data come from patent US6465491B2, “6-phenylpyridyl-2-amine derivatives” (Pfizer Inc., priority 1996, dated 2002).
